tested on: Plasmodium falciparum; assay: GSK_TCMDC: Inhibition of Plasmodium falciparum 3D7 in whole erythrocytes, using parasite LDH activity as an index of growth.; format: functional, organism-based; settings: Plasmodium falciparum, 3D7

SMILES	XC50
Fc1ccc2[nH]c(-c3cccc(-c4cccc(CN5CCN(c6cnccn6)CC5)c4)c3)nc2c1	1060 nM
Fc1cccc(Nc2nc(NCc3ccc4ccsc4c3)nc(Nc3cccc(F)c3)n2)c1	1080 nM
FC(F)(F)c1ccc(NC(=S)N2CCC(CCN3CCC(c4c[nH]c5ccccc45)CC3)CC2)cc1	885 nM
O=[N+]([O-])c1ccc(C(O)CNCCc2ccccc2)cc1OCc1ccccc1 (configuration not stated)	912 nM
COc1ccccc1CCCON1C(=N)N=C(N)NC1(C)C	3.2 nM
COc1ccc(O)c(C(=O)c2cc(C#N)c(=O)n(-c3ccc(Oc4ccccc4)cc3)c2)c1	737 nM
COc1ccc(Cc2cnc3nc(N)nc(N)c3c2C)cc1	29.1 nM
Cc1cc2[nH]c(-c3ccc(C(=O)NCCCN4CCN(c5cccc(Cl)c5)CC4)s3)nc2cc1Cl	653 nM
Cc1cccc2nc(-c3ccc(-c4ccc(CNCCNC(=O)c5ccnn5C)cc4)cc3)[nH]c12	480 nM
O=C(Nc1cccc(-c2cccc(-c3nc4cc(C(F)(F)F)ccc4[nH]3)c2)c1)Nc1ccc(F)c(F)c1F	119 nM
O=C(NC1CCN(CC2(c3ccc(Cl)cc3)CCC2)CC1)c1cc[nH]n1	421 nM
COc1ccc(CN2CCC(CN3CC4(OC3=O)c3ccccc3-c3ccccc34)C2)c(O)c1 (configuration not stated)	613 nM
CNS(=O)(=O)CCNCc1ccc(-c2ccc3ncnc(Nc4ccc(OCc5ccccc5)cc4)c3c2)o1	729 nM
CCCCCCCCc1c(C)nc(C)c(Br)c1O	824 nM
NC1CCN(CCNCc2cccc(-c3ccc(-c4nc5cc(F)ccc5[nH]4)cc3)c2)C1 (configuration not stated)	734 nM
O=C(Nc1ccc(-c2nc3ccccc3[nH]2)cc1)c1ccc(S(=O)(=O)N2CCc3ccccc32)cc1	741 nM
NC(=O)C1CCN(Cc2cccc(-c3cccc(-c4nc5cc(C(F)(F)F)ccc5[nH]4)c3)c2)CC1	641 nM
CC(C)CNCc1ccc(-c2ccc(CN(CCCN3CCN(C)CC3)C(=O)CCC3CCCC3)cc2)cc1	1060 nM
Cc1cc(OCC(=O)Nc2ccc(-c3nc4ccccc4[nH]3)cc2)cc(C)c1Cl	742 nM
c1cc(CNCC2CCN(CC3CCCCC3)CC2)cc(-n2ccnc2)c1	545 nM
COc1ccccc1-n1c(SCC(=O)c2ccc3c(c2)CC(=O)N3C)nnc1-c1cccs1	963 nM
CC(=O)Nc1ccc(C(=O)Nc2cccc(-c3ccc(-c4nc5cccc(C)c5[nH]4)cc3)c2)cn1	191 nM
O=C(Nc1cccc(-c2ccc(-c3nc4ccccc4[nH]3)cc2)c1)Nc1ccc(F)c(F)c1F	238 nM
Cn1nccc1C(=O)NCCNCc1ccc(-c2cccc(-c3nc4cc(F)ccc4[nH]3)c2)cc1	218 nM
O=C(/C=C/c1ccc(Cl)c(Cl)c1)NCCCCCN1CCC(NC(=O)Nc2ccc(Oc3ccccc3)cc2)C1 (configuration not stated)	594 nM

SMILES	XC50
CC(=O)Oc1cc(C)ccc1C1CCN(CCCCNC(=O)c2ccc(-c3ccc(C(F)(F)F)cc3)cc2)CC1	646 nM
CCOc1ccc(Nc2nc(N)c3ccccc3n2)cc1	1150 nM
CC(=O)Nc1ccc(CN2CCC(NC(=O)c3cc(-c4ccc(N(C)C)cc4)cs3)C2)cc1 (configuration not stated)	1170 nM
Cc1cc(NCC(c2ccccc2)c2ccccc2)nc(NCc2ccc(C(F)(F)F)cc2)n1	246 nM
O=C(O[C@H]1CN[C@H](C#Cc2cc3ncnc(Nc4ccc5c(ccn5S(=O)(=O)c5cccs5)c4)c3s2)C1)N1CCOCC1	1100 nM
CCc1cn2c3c(cc(C(=O)N[C@@H](Cc4ccccc4)[C@H](O)CNC4CCOCC4)cc13)N(C)S(=O)(=O)C2	87.7 nM
CCOc1ccc2nc3cc(NC(=O)c4ccco4)ccc3c(N)c2c1	802 nM
COC(=O)C(C)(C)c1ccc(CC(C)NCC(O)c2cccc(C(F)(F)F)c2)cc1 (configuration not stated)	837 nM
CC(C)Oc1ccccc1-c1csc(C(=O)NCC2CCN(Cc3ccc(C(C)(C)C)cc3)C2)c1 (configuration not stated)	1070 nM
Cc1cc(N2CCCC2)nc(Nc2ccc(NC(=O)C(C)(C)C)cc2)n1	1070 nM
COc1cc(NC(=O)N2CCc3ccc(OCCN(C(C)C)C(C)C)cc32)cc(C(F)(F)F)c1	186 nM
Oc1ccc(CCNc2nc(NCCCOc3cc(CN4CCCCC4)ccc3F)nc(N3CCNCC3)n2)cc1	1760 nM
Cc1cccc2nc(-c3cccc(-c4ccc(CNCCCN5CCCC5=O)cc4)c3)[nH]c12	956 nM
CCN1C(c2ccc(Cl)cc2)C(CNCc2ccccc2O)CC1(C)CO (configuration not stated)	311 nM
O=S(=O)(c1ccc2ccccc2c1)N1CCCN(Cc2ccc(OCCCN3CCCCC3)cc2)CC1	1100 nM
CC(=O)c1c[nH]c2ccc(/C=C/C(=O)NC3CCC(CCN4CCc5ccc(C#N)cc5CC4)CC3)cc12 (configuration not stated)	496 nM
Cc1cc(O)c(CN(C)Cc2ccc3c(c2)OCCO3)cc1C(C)C	672 nM
COc1ccc2nccc([C@@H](O)CN3CCC(NC(=O)COc4nc(SCc5ccc(F)cc5)nc5c4CCC5)CC3)c2c1	595 nM
Cn1nccc1C(=O)NCCNCc1ccc(-c2cccc(-c3nc4ccccc4[nH]3)c2)cc1	137 nM
CC1(C)NC(N)=NC(=N)N1OCCCCCCOc1ccc(Cl)c2ccccc12	3.2 nM
CCN(CCN(C)C)Cc1ccc(-c2ccc(NS(=O)(=O)c3cccc4cccnc34)cc2)cc1	931 nM
CCOc1cc(CC)ccc1C1CCN(CCN2CCC(NC(=O)c3ccc(-c4ccc(C#N)cc4)cc3)CC2)CC1	610 nM
CN(C)c1cc(NN=Cc2cc(Cl)ccc2O)nc(N(C)C)n1	703 nM
Fc1cccc(COc2ccc(-n3ccc4c(NCCCn5ccnc5)ncnc43)cc2Cl)n1	1030 nM
Cc1cc(N[C@@H](Cc2ccccc2)C(=O)NCc2cccc(F)c2)nc(NCCc2cccs2)n1	622 nM

SMILES	XC50
CC(Cc1ccc(OCCN2CCN(c3cccc(Cl)c3)CC2)cc1)NCC(O)c1cccc(Cl)c1 (configuration not stated)	1210 nM
COC(=O)c1cccc(CNCc2ccc(-c3cccc(-c4nc5cccc(C)c5[nH]4)c3)cc2)c1	306 nM
O=C(Nc1cccc(-c2ccc(-c3nc4cc(C(F)(F)F)ccc4[nH]3)s2)c1)c1cccnc1	363 nM
Cc1ccc(S(=O)(=O)N2CCCN(C(=O)c3cc(-c4ccccc4)[nH]n3)CC2)cc1	84.3 nM
O=C(/C=C/c1ccc(Cl)cc1)NCCCCCN1CCCC(C(=O)Nc2ccc(Cl)c(Cl)c2)C1 (configuration not stated)	833 nM
NC1=NC2(CCCCC2)N(OCCCCCCCCNc2nc(N)nc(N)n2)C(N)=N1	59.8 nM
CC1(C)NC(N)=NC(=N)N1OCCCOc1ccc([N+](=O)[O-])cc1	3.2 nM
CCCCCCN1CCC(NCc2ccc(Cl)cc2)CC1	854 nM
NC(=O)c1ccccc1OCC(=O)Nc1ccc(-c2cccc(-c3nc4cc(C(F)(F)F)ccc4[nH]3)c2)cc1	978 nM
CCOC(=O)CCCc1cc(NC2CCN(C)CC2)nc(Nc2ccc(C)cc2)n1	263 nM
CC1CC(C)CN(CC(O)CNC(=O)Nc2ccc(Br)cc2)C1 (configuration not stated)	1050 nM
COc1cccc(Nc2nc(C)cc(NCc3ccc(-c4c(C)noc4C)cc3)n2)c1	880 nM
CN(C(=O)Nc1ccc(F)cc1)C1CCN(CCCCCNC(=O)/C=C/c2ccc(Cl)c(Cl)c2)CC1	886 nM
Cc1cc(N2CCCN(C)CC2)nc(Nc2ccc(Cl)cc2)n1	795 nM
CC(C)(C)NS(=O)(=O)c1cc(C(=O)N2CCC(CCN3CCC(C(=O)c4ccc(F)cc4)CC3)(c3cccc(F)c3)CC2)c(Cl)cc1F	746 nM
O=C(Nc1nc2ccc(Cl)cc2s1)c1csnn1	786 nM
COCCNCc1ncsc1-c1ccc2c(Nc3ccc(Oc4ccccc4)cc3)ccnc2c1	905 nM
CN(C)c1ccc(-c2csc(C(=O)NC3CCCCN(Cc4ccc(C(C)(C)C)cc4)C3)c2)cc1 (configuration not stated)	1110 nM
CCOc1ccc(S(=O)(=O)N(C)c2ccc(OCC(=O)Nc3nccs3)cc2)cc1	961 nM
COc1ccc2nccc([C@@H](O)CN3CCC(NC(=O)[C@@H]4Cc5ccccc5CN4C(=O)OC(C)(C)C)CC3)c2c1	892 nM
COc1ccc2c(c1)S(=O)(=O)N=C(N1CCCC1c1ccc(Cl)c(Cl)c1)N2C (configuration not stated)	1280 nM
Cc1cccc2nc(-c3ccc(-c4cccc(NC(=O)C(C)CN(C)C)c4)cc3)[nH]c12 (configuration not stated)	652 nM
CCCCC(=O)Nc1nc2ccc([N+](=O)[O-])cc2s1	756 nM
Fc1ccc2[nH]c(-c3cccc(-c4cccc(CNCC5CCCO5)c4)c3)nc2c1 (configuration not stated)	513 nM
COc1ccc2nccc(NC(=O)OC3CCC(NCc4ccc5c(n4)NC(=O)CS5)CC3)c2c1 (configuration not stated)	924 nM

SMILES	XC50
C=CCc1cc(C)ccc1OCCCON1C(N)=NC(N)=NC1(C)C	3.2 nM
CC(C)NCc1cccc(-c2cccc(-c3nc4ccccc4[nH]3)c2)c1	799 nM
c1ccc(CCNCc2ccc(-c3cccc(CNc4ccc5ncccc5c4)c3)cc2)cc1	926 nM
CN1CCN(CCCSc2ccc3c(c2)ncn3-c2cc(OCc3ccccc3C(F)(F)F)c(C(N)=O)s2)CC1	439 nM
CCc1cc2c(=O)c(-c3nc(C)cs3)c(N)oc2c(CN2CCCCC2)c1O	658 nM
COc1ccc(C=Cc2cc(=N)c3ccccc3[nH]2)cc1	969 nM
CCc1ccc(CN2CCC(CN(C(=O)c3ccccc3)c3ccc(Cl)cc3)CC2)cc1	991 nM
COc1cc2nc(NCCc3cccc(Cl)c3)nc(NCc3ccccc3)c2cc1OC	124 nM
COc1cc2nc(Nc3ccc4c(cnn4Cc4ccccc4)c3)nc(Nc3ccc4c(cnn4Cc4ccccc4)c3)c2cc1OC	194 nM
CC(=O)Nc1nc(C(=O)Nc2ccc(-c3cccc(-c4nc5cc(C(F)(F)F)ccc5[nH]4)c3)cc2)cs1	184 nM
COc1ccc2nccc([C@@H](O)CN3CCC(NCc4cn5cc(F)ccc5n4)CC3)c2c1	784 nM
COc1ccc(CN2CCC(CNCCc3c(Cl)cccc3Cl)CC2)cc1	435 nM
CC(=O)N1N=C(c2ccc(F)cc2)Sc2c1nc(C1CCCCC1)n2C(C)=O	891 nM
Cc1noc(C)c1-c1cccc(CNCc2cccc(-c3ccc(-c4nc5ccccc5[nH]4)s3)c2)c1	204 nM
COc1cc(C)nc2ccc(NC(=O)Nc3ccc4nc(C)cc(OC)c4c3)cc12	548 nM
O=C(C1COc2ccccc2O1)N(CCCn1ccnc1)Cc1csc(-c2ccc(CNCc3ccccc3)cc2)n1 (configuration not stated)	619 nM
CCCN1CCN(CC(O)CNC(=O)Nc2ccc(Br)cc2)CC1 (configuration not stated)	63 nM
CN(C)CCNc1ncnc2c1[nH]c1ccc(Cl)cc12	601 nM
COCCn1c(-c2nc(-c3ccc(F)cc3)cnc2N)nc2ccccc21	872 nM
CCC1CN(S(=O)(=O)c2ccc3c(c2)NC(=O)CC(=O)N3)c2cc(Cl)ccc2O1 (configuration not stated)	656 nM
Cc1cc2cc(-c3ccc(CN)cc3)ccc2nc1N	1130 nM
CCc1cc2c(Sc3nnc(N)s3)ncnc2s1	659 nM

From ChEMBL document CHEMBL1157539, “Thousands of chemical starting points for antimalarial lead identification” (Nature, 2010)
